The values that follow come from patent US20240059729A1, “MULTIFUNCTIONAL CYCLIC DINUCLEOTIDE AND USE THEREOF” (TYLIGAND BIOSCIENCE (SHANGHAI) LIMITED, priority 2020, published 2024).

Where a name gives a salt, the structure may show the parent alone.

Test [1] relates to IFN-β secretion by THP-1 cells. As to the kind of experiment: Activation of IFN-β secretion by THP-1 cells (Human IFN-beta ELISA). It is filed as cell-based. The settings on record: for EC50 / Activating effect on IFN-β secretion / STING agonist activity (in words): THP-1 cells; for EC50: 24 hours, IFN-β ELISA; for Activating effect on IFN-β secretion / STING agonist activity (in words): EC50 compared with 2′,3′-cGAMP and ADU-S100. As to the method:
THP-1 cell, a human monocytic leukemia cell line, has the STING phenotype of HAQ type, i.e., R71H-G230A-R293Q. This assay used the Human IFN-beta DuoSet ELISA Kit from R & D (R & D, Cat #DY814-05) and the DuoSet ELISA Ancillary Reagent Kit 2 (R & D, Cat #DY008) to evaluate the activation of IFN-β secretion from THP-1 cells by representative compounds of the invention.
In thawing the THP-1 cells (ATCC #TIB-202), a cell freezing tube was quickly shaken in a water bath at 37° C. to thaw the cells within 1 min. The thawed cell suspension was taken and evenly mixed with an RPMI1640 medium (Hyclone, product #SH30027.01) containing 10% FBS (Life Technology, Cat #10099-141), centrifuged for 5 min at 1000 rpm, and the supernatant was discarded. The cell pellet was resuspended in 5 mL of the complete medium (RPMI 1640 medium containing 10% FBS), placed into a cell culture flask with a bottom area of 25 cm^2, and incubated in a cell incubator at 37° C., 5% CO2 and 95% humidity. When the cell confluence reached about 80%, the cells were passaged. All the cells in the culture flask were transferred to a 15 mL centrifuge tube, centrifuged for 5 min at 1000 rpm, and the supernatant was discarded. 5 mL of fresh complete medium was added to re-suspend the cell pellet, 1 mL of which was taken to place in a cell culture flask with a bottom area of 25 cm^2, supplemented with 4 mL of fresh complete medium for further incubation. When the cell confluence reached about 80% again, plating was conducted following the procedure of cell passage, retaining 1/5 cell suspension for further inculation and remaining 4/5 of the cell suspension in a 15 mL centrifuge tube. The cell suspension was centrifuged to discard the old culture medium, washed once using RPMI1640 culture medium (serum-free), and centrifuged to remove the supernatant. The cells were then re-suspended in RPMI1640 culture medium (serum-free). Cell viability was then detected by Trypan blue exclusion test and to be used for plating when the cell viability was confirmed to be more than 95%. A cell suspension with a density of 1.1×10^6 viable cells/mL was prepared using RPMI1640 culture medium (serum-free), and 180 μL of the cell suspension was added to a 96-well cell culture plate (NUNC Company, Cat #167008) so that the cell density in the plate was 2×10^5 viable cells/well.
(§1) A 10 mM stock solution of the compounds in DMSO was first serially diluted at 3.16-fold with DMSO (Sigma, Cat #D2650) to the 5th concentration, and the 6th concentration was set as DMSO control (compound-free). Then, the DMSO solutions containing different concentrations of the compounds were diluted at 10-fold with PBS so that the DMSO content in each compound solution of various concentrations was 10%. Finally, 20 μL of each of such solutions was added into corresponding cell culture plate to provide an initial compound concentration of 100 μM, with the dilution fold of adjacent concentrations being 3.16 and the DMSO content in the cell culture plate being 1%. The cell plate was placed in a cell incubator for further 24 hours.
ELISA detection was conducted referring to the instructions from R & D System, Cat #DY814-05.
ELISA plate coating: PBS (R & D System Cat #DY006) was used to dilute the capture antibody (mouse anti-human IFN-β capture antibody PART #844508) to provide the working concentration, and 100 μL capture antibody working solution was added to a 96-well ELISA plate which was then sealed and incubated overnight at room temperature. Upon discarding the capture antibody working solution, the cell plate was washed 3 times with a washing buffer (0.05% Tween-20 in PBS, pH 7.2-7.4, R & D System Cat #WA126) at 400 μL of the washing buffer per well, and the washing buffer was thoroughly removed after each washing, with the final washing to be completely removed of the wash buffer by inverting and claping the plate to a clean piece of paper. […]

In test [2] the test system is CT26 cells. As to the kind of experiment: Anti-tumor activity in bilateral transplantation tumor model of CT26 syngeneic mouse. Format: in vivo, BALB/c mice. To be noted: Day 13 post-dose; 50 μg/mouse intratumorally right side, Day 0 and Day 4. How it is done: BALB/c mice of 6-8 weeks (purchased from Shanghai Ling Chang Biotech Co., Ltd.) were inoculated with 5×10^5 CT26 cells (supplied by Taicang Zexin Biotechnology Co., Ltd., ATCC #CRL-2638) subcutaneously on the left and right back dorsal, respectively, and the inoculation volume was 0.1 mL/side. When tumors grew to an average volume of 100 mm^3, they were randomized according to tumor size and mouse body weight and dosing was initiated. The day of the first dose was Day 0.
Two doses were administered on Day 0 and Day 4, with 50 μg of compound/mouse (i.e., 2.5 mg/kg) injected intratumorally right side, with the same volume of PBS (Hyclone, Cat #SH30258.01) as a control. The tumor on the left side was not treated. The control mice were sacrificed 13 days and the treated mice were sacrificed 21 days, after dosing. During the experiment, tumor volumes on the left and right sides and the body weights were measured 3 times per week, and the tumor volume was calculated as V=D×d×d/2 (where D represents length of tumor and d represents width of tumor).

In test [3] the test system is CT26 cells. The experiment in a line: Inhibition of proliferation of CT26 cells (CellTiter-Glo). Format: cell-based, mouse. To be noted: for IC50: Mus musculus, 120 hours, CellTiter-Glo. How it is done: CT26 cell is a mouse colorectal cancer cell line. This assay used the CellTiter-Glo Luminescence Cell Vitality Assay kit from Promega to evaluate the inhibitory activity of the compounds on the proliferation of CT26 cells.
In thawing the CT26 cells (ATCC #CRL-2638), a cell freezing tube was quickly shaken in a water bath at 37° C. to thaw the cells within 1 min. The thawed cell suspension was taken and evenly mixed with DMEM medium (GE, Cat #SH30243.01) containing 10% FBS (GIBCO, Cat #10099-141), centrifuged for 5 min at 1000 rpm, and the supernatant was discarded. The cell pellet was resuspended in 5 mL of the complete medium (DMEM medium containing 10% FBS), placed into a cell culture flask with a bottom area of 25 cm^2, and incubated in a cell incubator at 37° C., 5% CO2 and 95% humidity. When the cell confluence reached 70%˜80%, the cells were passaged. All the cells in the culture flask were transferred to a 15 mL centrifuge tube, centrifuged for 5 min at 1000 rpm, and the supernatant was discarded. 5 mL of fresh complete medium was added to re-suspend the cell pellet, 1 mL of which was taken to place in a cell culture flask with a bottom area of 25 cm^2, supplemented with 4 mL of fresh complete medium for further incubation. When the cell confluence reached 70%-80% again, plating was conducted following the procedure of cell passage, retaining 1/5 cell suspension for further inculation and remaining 4/5 of the cell suspension in a 15 mL centrifuge tube.
The cell suspension was centrifuged to discard the old culture medium, washed once using DMEM medium (serum-free), and centrifuged to remove the supernatant. The cells were then re-suspended in DMEM medium (serum-free). Cell viability was then detected by Trypan blue exclusion test and to be used for plating when the cell viability was confirmed to be more than 95%. A cell suspension with a density of 1.1×10^4 viable cells/mL was prepared using DMEM medium (serum-free), and 90 μL of the cell suspension was added to a 96-well 96-well transparent flat-bottomed black-walled cell culture plate (Corning, Cat #3603) so that the cell density in the plate was 1000 viable cells/well. A control group containing no cells, no compound, and complete medium only (i.e., a culture medium control), and a control group containing no compound but cells (i.e., a cell control) were set. The cell plates were placed in a cell incubator overnight.
as §1, with “9th” for “5th”, “10th” for “6th”, “PBS (Solarbio, Cat #P1020)” for “PBS”, “10” for “20”, “120” for “24”
After 120 hours, the CellTiter-Glo reagent (Promega, Cat #G7572) was thawed and the plates were equilibrated at room temperature for 30 min. 100 uL of CellTiter-Glo was added to each well of the plate, and the cells were lysed thoroughly by shaking on an orbital shaker for 5 min. The plates were placed at room temperature for 20 min to stabilize the luminescence signal, and the luminescence value of each well was scanned at full wavelength with a multifunctional microplate reader (Molecular Devices, Spectramax M3). […]

For the molecule `Nc1nc2c(ncn2[C@@H]2O[C@@H]3CO[P@@](=O)(S)OC4C(F)[C@H](n5cnc6c(N)nc(Cl)nc65)O[C@@H]4CO[P@](=O)(S)OC3C2O)c(=O)[nH]1` (stereo partly drawn) [Example 16, (3′,3′)-cyclo-(Rp,Rp)-[3′-O-phosphorothioate-diester-guanosine]-[3′-O-phosphorothioate-diester-2-chloro-2′-deoxy-2′-fluoro-beta-adenosine] diammonium salt], in test [1] (diammonium salt), the EC50 was 1 to 10 µM. In addition, the “Activating effect on IFN-β secretion / STING agonist activity (in words)” value in test [1] is “significant STING agonist activity”. For the same molecule, the “Highest concentration of IFN-β secreted by stimulated THP-1 cells” value in test [1] (compared with ADU-S100) is on record as “higher than that of ADU-S100”. Further, the “Growth inhibition rate, untreated left tumor” value with CT26 cells [2] is 71.7%. In the test with CT26 cells [3], this molecule displayed an IC50 of 1 to 10 µM.
The molecule `Nc1nc(Cl)nc2c1ncn2[C@@H]1O[C@@H]2CO[P@@](=O)(S)OC3[C@@H](F)[C@H](n4cnc5c(N)nc(Cl)nc54)O[C@@H]3CO[P@@](=O)(S)O[C@@H]2C1F` (stereo partly drawn) [Example 1, (3′,3′)-cyclo-(Rp,Rp)-bis-[3′-O-phosphorothioate-diester-2-chloro-2′-deoxy-2′-fluoro-beta-adenosine]1.5-ammonium-0.5-1,8-diazabicycloundec-7-ene-salt] came in with an IC50 in the test on CT26 cells [3] of 1 to 10 µM.
`Nc1nc2c(ncn2[C@@H]2O[C@@H]3CO[P@@](=O)(S)OC4C[C@H](n5cnc6c(N)nc(Cl)nc65)O[C@@H]4CO[P@@](=O)(S)OC2C3O)c(=O)[nH]1` (stereo partly shown) [Example 12, (2′,3′)-cyclo-(Rp,Rp)-[2′-O-phosphorothioate-diester-guanosine]-[3′-O-phosphorothioate-diester-2-chloro-2′-deoxy-adenosine] diammonium salt] had an EC50 in test [1] (Homo sapiens, THP-1, 24 h) of 1 to 10 µM. Besides, the “Activating effect on IFN-β secretion / STING agonist activity (in words)” value in test [1] was “significant STING agonist activity”. The “Growth inhibition rate, untreated left tumor” value with CT26 cells [2] came to 75.3%. Besides, the IC50 in the test on CT26 cells [3] lay within 1 to 10 µM.
As for `Nc1ccn([C@@H]2O[C@@H]3CO[P@@](=O)(S)O[C@H]4C(O)[C@@H](CO[P@@](=O)(S)O[C@@H]3C2(F)F)O[C@H]4n2cnc3c(=O)[nH]c(N)nc32)c(=O)n1` (stereo partly shown) [Example 13, (2′,3′)-cyclo-(Rp,Rp)-[2′-O-phosphorothioate-diester-guanosine]-[3′-O-phosphorothioate-diester-2′-deoxy-2′,2′-difluorocytidine]diammonium salt], the EC50 in test [1] (Homo sapiens, THP-1, 24 h) was 10.1 to 100 µM. In the test on CT26 cells [3], this molecule returned an IC50 of less than 1 µM.
On to `CCCC(CCC)C(=O)Nc1ccn([C@@H]2O[C@H](CO)[C@@H](O)C2(F)F)c(=O)n1` [LY2334737, N4-(2-propylpentanoyl)-2′-deoxy-2′,2′-difluorocytidine, reference compound], for which the IC50 in the test with CT26 cells [3] was in the range of 1 to 10 µM.
On to `Nc1ccn([C@@H]2O[C@H](CO)[C@@H](O)C2(F)F)c(=O)n1` [Gemcitabine, gemcitabine, reference compound], for which the IC50 with CT26 cells [3] was less than 1 µM.
Turning to `Nc1nc(Cl)nc2c1ncn2[C@@H]1O[C@@H]2CO[P@@](=O)(S)OC3C(O)[C@@H](CO[P@@](=O)(S)OC2C1F)O[C@H]3n1cnc2c(N)ncnc21` (stereo partly drawn) [Example 5, (2′,3′)-cyclo-(Rp,Rp)-[2′-O-phosphorothioate-diester-adenosine]-[3′-O-phosphorothioate-diester-2-chloro-2′-deoxy-2′-fluoro-beta-adenosine] diammonium salt], in test [1] (Homo sapiens, THP-1, 24 h), the EC50 lay in the range of 10.1 to 100 µM. This molecule returned a half-inhibitory concentration (IC50) in the test with CT26 cells [3] of 1 to 10 µM.
`Nc1ccn([C@@H]2O[C@@H]3CO[P@@](=O)(S)OC4[C@@H](CO[P@@](=O)(S)OC3C2(F)F)O[C@@H](n2ccc(N)nc2=O)C4(F)F)c(=O)n1` (stereo partly shown) [Example 3, (3′,3′)-cyclo-(Rp,Rp)-bis-[3′-O-phosphorothioate-diester-2′-deoxy-2′,2′-difluorocytidine]]: in the test on CT26 cells [3], the “Inhibitory potency on in vitro growth of CT26 tumor cells (in words)” value is listed as “particularly significant inhibitory potency” and the IC50 is less than 1 µM.
Consider `Nc1nc(Cl)nc2c1ncn2[C@H]1CC2O[P@](=O)(S)OC[C@H]3O[C@@H](n4cnc5c(N)nc(Cl)nc54)CC3O[P@](=O)(S)OC[C@H]2O1` (stereo partly shown) [Example 2, (3′,3′)-cyclo-(Rp,Rp)-bis-[3′-O-phosphorothioate-diester-2-chloro-2′-deoxyadenosine]], for which the IC50 in the test with CT26 cells [3] was 1 to 10 µM.
